IC50 data for 14 compounds are collected here from patent publication US20250163104A1, “MACROCYCLIC IMMUNOMODULATORS” (priority 2021, published 2025).

This assay concerns the target T1, human PD-1 / PD-L1-Ig binding on Jurkat cell line over-expressing human PD-1 (Jurkat-PD-1) (Homo sapiens, UniProt Q15116).
T1 construct: expressed in transfected cells; host or cells: Jurkat
In words: Jurkat-PD-1 Cell Binding High-Content Screening Assay (CBA). The format is cell-based. As to conditions: Jurkat-PD-1 cells, PE-labeled PD-L1-Ig 20 nM final; read-out: Jurkat HPD1_PDL1 IC50. In short, it runs like this: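 Read-out: high-content imaging of PE-tagged PD-L1-Ig bound to Jurkat cells overexpressing human PD-1, after fixation with 4% paraformaldehyde and Hoechst 33342 nuclear staining. Ligand was used at 20 nM final for 1 hour, after a 2 h compound exposure at 37° C in serum-containing DMEM.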

Where a SMILES comes first, the peptide text is derived from it. Bridges are numbered along the chain shown (N, C = ends). [ ]: non-standard residue; d: D form. The star is where a group is joined. ξ: configuration not given here. Phe(4-(3-Py)) = N[C@@H](Cc1ccc(-c2cccnc2)cc1)C(=O)O; Phe(3-CF3) = N[C@@H](Cc1cccc(C(F)(F)F)c1)C(=O)O; Phe(3-Ph) = N[C@@H](Cc1cccc(-c2ccccc2)c1)C(=O)O; Ala(morpholin-4-yl) = N[C@@H](CN1CCOCC1)C(=O)O; Phe(4-COOH) = N[C@@H](Cc1ccc(C(=O)O)cc1)C(=O)O; Bip = N[C@@H](Cc1ccc(-c2ccccc2)cc1)C(=O)O; Phe(3-Me) = Cc1cccc(C[C@H](N)C(=O)O)c1; Val(3-OH) = CC(C)(O)[C@H](N)C(=O)O; 3Pal = N[C@@H](Cc1cccnc1)C(=O)O; 4Pal = N[C@@H](Cc1ccncc1)C(=O)O; Cha = N[C@@H](CC1CCCCC1)C(=O)O; Cit = NC(=O)NCCC[C@H](N)C(=O)O; Thr(3ξ) = CC(O)[C@H](N)C(=O)O; Carboxymethyl = O=C(O)C*; Orn = NCCC[C@H](N)C(=O)O; Dab = NCC[C@H](N)C(=O)O; Dap = NC[C@H](N)C(=O)O; ξPra = C#CCC(N)C(=O)O

T1 sequence (Q15116 25-288): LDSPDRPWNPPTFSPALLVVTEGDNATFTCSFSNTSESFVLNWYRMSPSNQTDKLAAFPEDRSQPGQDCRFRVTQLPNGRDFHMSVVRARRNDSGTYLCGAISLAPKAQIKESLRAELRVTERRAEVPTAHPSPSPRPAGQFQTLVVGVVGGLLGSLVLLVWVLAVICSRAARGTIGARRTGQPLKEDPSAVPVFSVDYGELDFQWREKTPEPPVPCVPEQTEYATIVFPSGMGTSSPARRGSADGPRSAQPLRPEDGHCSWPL

As usually defined, the IC50 is the point on the concentration scale where inhibition reaches its midpoint. `Cc1cccc(C[C@@H]2NC(=O)[C@H](CC(=O)O)NC(=O)[C@H](Cc3ccc(C(=O)O)cc3)NC(=O)[C@H](Cc3ccncc3)NC(=O)CSC[C@@H](C(=O)N[C@@H](C)C(N)=O)NC(=O)[C@H]([C@@H](C)O)NC(=O)[C@H](C(C)C)NC(=O)[C@H](CC3CCCCC3)NC(=O)[C@H](CCN)NC(=O)[C@@H](CC(C)C)NC(=O)[C@H](CCCN)NC(=O)[C@H](C3CC3)NC(=O)[C@H](Cc3ccc(-c4ccccc4)cc3)NC(=O)[C@H](C(C)C)NC2=O)c1` [Compound 1617]: the IC50 was found to be 0.0085 µM.
Regarding `CC(C)C[C@H]1NC(=O)[C@H](CCCN)NC(=O)[C@H](C(C)C)NC(=O)[C@H](Cc2ccc(-c3ccccc3)cc2)NC(=O)[C@H](C(C)C)NC(=O)[C@H](Cc2c[nH]c3ccccc23)NC(=O)[C@H](CC(=O)O)NC(=O)[C@H](Cc2ccc(OCC(=O)O)cc2)NC(=O)[C@H](Cc2ccc(OCC(=O)O)cc2)NC(=O)CSC[C@@H](C(=O)N[C@@H](C)C(N)=O)NC(=O)[C@H](CN)NC(=O)[C@H](C(C)C)NC(=O)[C@H](CC2CCCCC2)NC(=O)[C@H](CCN)NC1=O` [Compound 1740] ({CH2CO}-Y(Carboxymethyl)Y(Carboxymethyl)DWV[Bip]V[Orn][dL][Dab][Cha]V[Dap]CA-NH2; thioether N-14), the 50% inhibitory concentration (IC50) was 0.0061 µM.
To `C#CCC(NC(=O)[C@H](CCCCN)NC(=O)[C@@H]1CSCC(=O)N[C@@H](Cc2ccncc2)C(=O)N[C@@H](Cc2ccc(OCC(=O)O)cc2)C(=O)N[C@@H](CC(=O)O)C(=O)N[C@@H](Cc2c[nH]c3ccccc23)C(=O)N[C@@H](C(C)C)C(=O)N[C@@H](Cc2ccc(-c3ccccc3)cc2)C(=O)N[C@@H]([C@@H](C)CC)C(=O)N[C@@H](CCCN)C(=O)N[C@H](CC(C)C)C(=O)N[C@@H](CCN)C(=O)N[C@@H](CC(C)C)C(=O)N[C@@H](C(C)C)C(=O)N[C@@H]([C@@H](C)O)C(=O)N1)C(N)=O` (stereo partly drawn) [Compound 1767] ({CH2CO}-[4Pal]Y(Carboxymethyl)DWV[Bip]I[Orn][dL][Dab]LVTCK[ξPra]-NH2; thioether N-14) belongs 0.0167 µM; to `CC(C)C[C@H]1NC(=O)[C@H](CCCN)NC(=O)[C@H](Cc2ccc(C(=O)O)cc2)NC(=O)[C@H](Cc2ccc(-c3ccccc3)cc2)NC(=O)[C@H](Cc2ccc(-c3cccnc3)cc2)NC(=O)[C@H](Cc2cccc(C(F)(F)F)c2)NC(=O)[C@H](CC(=O)O)NC(=O)[C@H](Cc2ccc(C(=O)O)cc2)NC(=O)[C@H](CN2CCOCC2)NC(=O)CSC[C@@H](C(=O)N[C@@H](CCN)C(N)=O)NC(=O)[C@H](CCC(=O)O)NC(=O)[C@H](C(C)C)NC(=O)[C@H](CC2CCCCC2)NC(=O)[C@H](CCN)NC1=O` [Example 2731] ({CH2CO}-[Ala(morpholin-4-yl)][Phe(4-COOH)]D[Phe(3-CF3)][Phe(4-(3-Py))][Bip][Phe(4-COOH)][Orn][dL][Dab][Cha]VEC[Dab]-NH2; thioether N-14), 0.0015 µM; to `CC(C)C[C@H]1NC(=O)[C@H](CCCN)NC(=O)[C@H](CCC(=O)O)NC(=O)[C@H](Cc2ccc(-c3ccccc3)cc2)NC(=O)[C@H](C(C)C)NC(=O)[C@H](Cc2c[nH]c3ccccc23)NC(=O)[C@H](CC(=O)O)NC(=O)[C@H](Cc2ccc(-c3ccc(C(=O)O)cc3)cc2)NC(=O)[C@H](Cc2ccncc2)NC(=O)CSC[C@@H](C(=O)N[C@@H](C)C(N)=O)NC(=O)[C@H]([C@@H](C)O)NC(=O)[C@H](C(C)C)NC(=O)[C@H](CC2CCCCC2)NC(=O)[C@H](CCN)NC1=O` [Compound 2169], 0.0408 µM.
`CC(C)C[C@H]1NC(=O)[C@H](CCCN)NC(=O)[C@H](CCC(=O)O)NC(=O)[C@H](Cc2ccc(-c3ccccc3)cc2)NC(=O)[C@H](C(C)C)NC(=O)[C@H](Cc2c[nH]c3ccccc23)NC(=O)[C@H](CC(=O)O)NC(=O)[C@H](Cc2ccc(C(=O)O)cc2)NC(=O)[C@H](Cc2ccc(OCC(=O)O)cc2)NC(=O)CSC[C@@H](C(=O)N[C@@H](C)C(N)=O)NC(=O)[C@H]([C@@H](C)O)NC(=O)[C@H](C(C)C)NC(=O)[C@H](Cc2ccc(O)cc2)NC(=O)[C@H](CCN)NC1=O` [Compound 1687] ({CH2CO}-Y(Carboxymethyl)[Phe(4-COOH)]DWV[Bip]E[Orn][dL][Dab]YVTCA-NH2; thioether N-14): the concentration for half-maximal inhibition (IC50) is 0.368 µM.
Take `CC[C@H](C)[C@@H]1NC(=O)[C@H](Cc2ccc(-c3ccccc3)cc2)NC(=O)[C@H](C(C)C)NC(=O)[C@H](Cc2c[nH]c3ccccc23)NC(=O)[C@H](CC(=O)O)NC(=O)[C@H](Cc2ccc(C(=O)O)cc2)NC(=O)[C@H](Cc2ccc(OCC(=O)O)cc2)NC(=O)CSC[C@@H](C(=O)N[C@@H](C)C(N)=O)NC(=O)[C@H]([C@@H](C)O)NC(=O)[C@H](C(C)C)NC(=O)[C@H](CC(C)C)NC(=O)[C@H](CCN)NC(=O)[C@@H](CC(C)C)NC(=O)[C@H](CCCN)NC1=O` [Compound 1250] ({CH2CO}-Y(Carboxymethyl)[Phe(4-COOH)]DWV[Bip]I[Orn][dL][Dab]LVTCA-NH2; thioether N-14): the IC50 is 0.0069 µM.
In the case of `Cc1cccc(C[C@@H]2NC(=O)[C@H](CC(=O)O)NC(=O)[C@H](Cc3ccc(OCC(=O)O)cc3)NC(=O)[C@H](Cc3ccncc3)NC(=O)CSC[C@@H](C(=O)N[C@@H](CCN)C(N)=O)NC(=O)[C@H]([C@@H](C)O)NC(=O)[C@H](C(C)(C)O)NC(=O)[C@H](CC3CCCCC3)NC(=O)[C@H](CCN)NC(=O)[C@@H](CC(C)C)NC(=O)[C@H](CCCN)NC(=O)[C@H](Cc3ccc(OCC(=O)O)cc3)NC(=O)[C@H](Cc3ccc(-c4ccccc4)cc3)NC(=O)[C@H](Cc3ccc(OCC(=O)O)cc3)NC2=O)c1` [Compound 2066] ({CH2CO}-[4Pal]Y(Carboxymethyl)D[Phe(3-Me)]Y(Carboxymethyl)[Bip]Y(Carboxymethyl)[Orn][dL][Dab][Cha][Val(3-OH)]TC[Dab]-NH2; thioether N-14), the IC50 was found to be 0.0061 µM.
Take `Cc1cccc(C[C@@H]2NC(=O)[C@H](CC(=O)O)NC(=O)[C@H](Cc3ccc(OCC(=O)O)cc3)NC(=O)[C@H](CN)NC(=O)CSC[C@@H](C(=O)NCC(N)=O)NC(=O)[C@H](CO)NC(=O)[C@H](C(C)C)NC(=O)[C@H](CC(C)C)NC(=O)[C@H](CCN)NC(=O)[C@@H](CC(C)C)NC(=O)[C@H](CCCN)NC(=O)[C@H](C(C)C)NC(=O)[C@H](Cc3ccc(-c4ccccc4)cc3)NC(=O)[C@H](CC(C)C)NC2=O)c1` [Compound 1264] ({CH2CO}-[Dap]Y(Carboxymethyl)D[Phe(3-Me)]L[Bip]V[Orn][dL][Dab]LVSCG-NH2; thioether N-14): the IC50 was 0.0045 µM.
Regarding `CC(C)C[C@@H]1NC(=O)[C@H](CCN)NC(=O)[C@@H](CC(C)C)NC(=O)[C@H](CCCN)NC(=O)[C@H](CCCNC(N)=O)NC(=O)[C@H](Cc2ccc(-c3ccccc3)cc2)NC(=O)[C@H](C(C)C)NC(=O)[C@H](Cc2c[nH]c3ccccc23)NC(=O)[C@H](CC(=O)O)NC(=O)[C@H](Cc2ccc(OCC(=O)O)cc2)NC(=O)[C@H](CN)NC(=O)CSC[C@@H](C(=O)N[C@@H](C)C(N)=O)NC(=O)[C@H]([C@@H](C)O)NC(=O)[C@H](C(C)C)NC1=O` [Compound 1241] ({CH2CO}-[Dap]Y(Carboxymethyl)DWV[Bip][Cit][Orn][dL][Dab]LVTCA-NH2; thioether N-14), the IC50 was determined as 0.0278 µM.
Take `Cc1cccc(C[C@@H]2NC(=O)[C@H](CC(=O)O)NC(=O)[C@H](Cc3ccncc3)NC(=O)[C@H](CN)NC(=O)CSC[C@@H](C(N)=O)NC(=O)[C@H]([C@@H](C)O)NC(=O)[C@H](C(C)C)NC(=O)[C@H](CC(C)C)NC(=O)[C@H](CCN)NC(=O)[C@@H](CC(C)C)NC(=O)[C@H](CCCN)NC(=O)[C@H](CCCNC(N)=O)NC(=O)[C@H](Cc3cccc(-c4ccccc4)c3)NC(=O)[C@H](C(C)C)NC2=O)c1` [Compound 1654] ({CH2CO}-[Dap][4Pal]D[Phe(3-Me)]V[Phe(3-Ph)][Cit][Orn][dL][Dab]LVTC-NH2; thioether N-14): the IC50 came out at 0.124 µM.
Take `CC(C)C[C@@H]1NC(=O)[C@H](CCN)NC(=O)[C@@H](CC(C)C)NC(=O)[C@H](CCCN)NC(=O)[C@H](CCCNC(N)=O)NC(=O)[C@H](Cc2ccc(-c3ccccc3)cc2)NC(=O)[C@H](C(C)C)NC(=O)[C@H](Cc2c[nH]c3ccccc23)NC(=O)[C@H](CC(=O)O)NC(=O)[C@H](Cc2ccc(O)cc2)NC(=O)[C@H](Cc2cccnc2)NC(=O)CSC[C@@H](C(=O)N[C@@H](C)C(N)=O)NC(=O)[C@H]([C@@H](C)O)NC(=O)[C@H](C(C)C)NC1=O` [Compound 1041] ({CH2CO}-[3Pal]YDWV[Bip][Cit][Orn][dL][Dab]LVTCA-NH2; thioether N-14): the IC50 came to 0.0424 µM.
Turning to `CC(C)C[C@H]1NC(=O)[C@H](CCCN)NC(=O)CNC(=O)[C@H](Cc2ccc(-c3ccccc3)cc2)NC(=O)[C@H](C(C)C)NC(=O)[C@H](Cc2c[nH]c3ccccc23)NC(=O)[C@H](CC(=O)O)NC(=O)[C@H](Cc2ccc(OCC(=O)O)cc2)NC(=O)[C@H](C(C)O)NC(=O)CSC[C@@H](C(=O)N[C@@H](CC(N)=O)C(N)=O)NC(=O)[C@H](CO)NC(=O)[C@H](C(C)C)NC(=O)[C@H](CC2CCCCC2)NC(=O)[C@H](CCN)NC1=O` (stereo partly drawn) [Compound 2566] ({CH2CO}-[Thr(3ξ)]Y(Carboxymethyl)DWV[Bip]G[Orn][dL][Dab][Cha]VSCN-NH2; thioether N-14), the IC50 was 0.121 µM.
Regarding `CC(C)[C@@H]1NC(=O)[C@H](Cc2c[nH]c3ccccc23)NC(=O)[C@H](CC(=O)O)NC(=O)[C@H](Cc2ccc(OCC(=O)O)cc2)NC(=O)[C@H](CN)NC(=O)CSC[C@@H](C(=O)N[C@@H](C)C(N)=O)NC(=O)[C@H]([C@@H](C)O)NC(=O)[C@H](C(C)C)NC(=O)[C@H](CC2CCCCC2)NC(=O)[C@H](CCN)NC(=O)[C@@H](Cc2ccc(O)cc2)NC(=O)[C@H](CCCN)NC(=O)[C@H](CCC(=O)O)NC(=O)[C@H](Cc2ccc(-c3ccccc3)cc2)NC1=O` [Compound 1448] ({CH2CO}-[Dap]Y(Carboxymethyl)DWV[Bip]E[Orn][dY][Dab][Cha]VTCA-NH2; thioether N-14), the IC50 is 0.0269 µM.
